In brackets after ≈: the same amount, converted by molar mass. Read-outs that look alike come from different tables or passages of the source.
How the values were obtained:
Staph.aureus A 2001 [1] = test: agar serial dilution test; format: cell-based, Staphylococcus aureus; details: Staphylococcus aureus, A2001, 24 h, read-out: minimal inhibitory concentration (MIC)
Kleb.pneum. A 809 = test: agar serial dilution test; format: cell-based, Klebsiella pneumoniae; details: Klebsiella pneumoniae; agar serial dilution, 24 hours, 37° C.; read-out: minimal inhibitory concentration (MIC)
Pseud.aerug. 2396 = test: agar serial dilution test; format: cell-based; details: agar serial dilution, 24 hours, 37° C.; read-out: minimal inhibitory concentration (MIC)
Haem.infl. A 1030 = test: micro serial dilution test; format: cell-based; details: 18 h, micro serial dilution (in brackets), about 18 hours, 30° C. or 37° C.; read-out: minimal inhibitory concentration (MIC)
Bruc.melit. A 488 = test: microbe, parasite or virus in culture; format: cell-based; details: Brucella melitensis, 24 h, read-out: minimal inhibitory concentration (MIC)
Staph.aureus A 2000 [2] = test: micro serial dilution test; format: cell-based, Staphylococcus aureus; details: Staphylococcus aureus, A2000, 18 h, micro serial dilution (in brackets), about 18 hours, 30° C. or 37° C.; read-out: minimal inhibitory concentration (MIC)
Esch.coli U 20 = test: agar serial dilution test; format: cell-based, Escherichia coli; details: Escherichia coli
Prot.mirab. A 1200 = test: agar serial dilution test; format: cell-based, Proteus mirabilis; details: Proteus mirabilis, 24 h, read-out: minimal inhibitory concentration (MIC)
Prot.morg. 2241 = test: agar serial dilution test; format: cell-based; details: 24 h, agar serial dilution, 24 hours, 37° C.; read-out: minimal inhibitory concentration (MIC)
Staph.aureus A 2000 [3] = test: agar serial dilution test; format: cell-based, Staphylococcus aureus; details: Staphylococcus aureus, A2000, 24 h, agar serial dilution, 24 hours, 37° C.; read-out: minimal inhibitory concentration (MIC)
Salm.typh. R 127 = test: agar serial dilution test; format: cell-based; details: 24 h, 37° C., read-out: minimal inhibitory concentration (MIC)
Staph.aureus A 355 [4] = test: micro serial dilution test; format: cell-based, Staphylococcus aureus; details: Staphylococcus aureus, A355; micro serial dilution (in brackets), about 18 hours, 30° C. or 37° C.; penicillinase-producing strain; read-out: minimal inhibitory concentration (MIC)
Strep.haem. A 266 = test: agar serial dilution test; format: cell-based, Streptococcus haemolyticus; details: Streptococcus; agar serial dilution, 24 hours, 37° C.; read-out: minimal inhibitory concentration (MIC)
Staph.aureus A 321 = test: agar serial dilution test; format: cell-based, Staphylococcus aureus; details: Staphylococcus aureus, A321, 24 h, agar serial dilution, 24 hours, 37° C.; read-out: minimal inhibitory concentration (MIC)
Bac.Subt.ATCC 6633 = test: agar serial dilution test; format: cell-based, Bacillus subtilis; details: Bacillus subtilis, ATCC6633, 24 h, agar serial dilution, 24 hours, 37° C.; read-out: minimal inhibitory concentration (MIC)
Past.multo. A 723 = test: agar serial dilution test; format: cell-based, Pasteurella multocida; details: Pasteurella multocida; agar serial dilution, 24 hours, 37° C.; read-out: minimal inhibitory concentration (MIC)
Pseud.aerug. H 10 = test: agar serial dilution test; format: cell-based; details: agar serial dilution, 24 hours, 37° C.; read-out: minimal inhibitory concentration (MIC)
Salm.dubl. P 43 = test: agar serial dilution test; format: cell-based, Salmonella dublin; details: Salmonella enterica, read-out: minimal inhibitory concentration (MIC)
Prot.mirab. H 3 = test: agar serial dilution test; format: cell-based, Proteus mirabilis; details: Proteus mirabilis; agar serial dilution, 24 hours, 37° C.; read-out: minimal inhibitory concentration (MIC)
[5] = tested on: Pseud.aerug. Wyeth A 1058; test: agar serial dilution test; format: cell-based; details: agar serial dilution, 24 hours, 37° C.; read-out: minimal inhibitory concentration (MIC)
Prot.rettg. A 821 = test: agar serial dilution test; format: cell-based, Proteus rettgeri; details: Providencia rettgeri, 24 h, read-out: minimal inhibitory concentration (MIC)
Staph.aureus A 2001 [6] = test: micro serial dilution test; format: cell-based, Staphylococcus aureus; details: Staphylococcus aureus, A2001, 18 h, micro serial dilution (in brackets), about 18 hours, 30° C. or 37° C.; read-out: minimal inhibitory concentration (MIC)
Shig.equir. T 3 = test: agar serial dilution test; format: cell-based; details: 24 h, 37° C., read-out: minimal inhibitory concentration (MIC)
Strep. faec. L 80 = test: agar serial dilution test; format: cell-based, Streptococcus faecalis; details: Enterococcus faecalis; agar serial dilution, 24 hours, 37° C.; read-out: minimal inhibitory concentration (MIC)
Prot.mirab. L 93 = test: agar serial dilution test; format: cell-based, Proteus mirabilis; details: Proteus mirabilis; agar serial dilution, 24 hours, 37° C.; read-out: minimal inhibitory concentration (MIC)
Dipl.pneum. L 54 = test: agar serial dilution test; format: cell-based, Diplococcus pneumoniae; details: Streptococcus pneumoniae; agar serial dilution, 24 hours, 37° C.; read-out: minimal inhibitory concentration (MIC)
Staph.aureus A 355 [7] = test: agar serial dilution test; details: Staphylococcus aureus, A355, 24 h, read-out: minimal inhibitory concentration (MIC), agar serial dilution, 24 hours, 37° C.; penicillinase-producing strain
[8] = agar serial dilution, 24 hours, 37° C.
[9] = U20, agar serial dilution, 24 hours, 37° C., read-out: minimal inhibitory concentration (MIC)
[10] = U20, 24 h, read-out: minimal inhibitory concentration (MIC), agar serial dilution, 24 hours, 37° C.

SMILES | MIC (Kleb.pneum. A 809) [µg/mL] | MIC (Pseud.aerug. 2396) [µg/mL] | MIC (Haem.infl. A 1030) [µg/mL] | MIC (Bruc.melit. A 488) [µg/mL] | MIC (Staph.aureus A 2000 [2]) [µg/mL] | MIC (Prot.morg. 2241) [µg/mL] | MIC (Staph.aureus A 2000 [3]) [µg/mL] | MIC (Salm.typh. R 127) [µg/mL] | MIC (Staph.aureus A 355 [4]) [µg/mL] | MIC (Strep.haem. A 266) [µg/mL] | MIC (Staph.aureus A 321) [µg/mL] | MIC (Bac.Subt.ATCC 6633) [µg/mL] | MIC (Past.multo. A 723) [µg/mL] | MIC (Pseud.aerug. H 10) [µg/mL] | MIC (Prot.mirab. H 3) [µg/mL] | MIC [5] [µg/mL] | MIC (Staph.aureus A 2001 [6]) [µg/mL] | MIC (Shig.equir. T 3) [µg/mL] | MIC (Strep. faec. L 80) [µg/mL] | MIC (Prot.mirab. L 93) [µg/mL] | further results
CC(=O)OCC1=C(C(=O)O)N2C(=O)[C@@H](NC(=O)Cc3nc(-c4c(Cl)cccc4Cl)no3)[C@H]2SC1 [Example 11C, 7-{[3-(2,6-dichlorophenyl)-1,2,4-oxadiazol-5-yl]-acetamido}cephalosporanicacid] | 12.5 (≈ 23.7 µM) | > 100 | 23 (≈ 43.6 µM) | 6 (≈ 11.4 µM) | 0.18 (≈ 0.341 µM) | > 100 | 0.5 (≈ 0.948 µM) | > 100 | 0.69 (≈ 1.31 µM) | 0.03 (≈ 0.0569 µM) | 0.12 (≈ 0.228 µM) | 0.12 (≈ 0.228 µM) | 6 (≈ 11.4 µM) | > 100 | > 100 | > 100 | 0.25 (≈ 0.474 µM) | 25 (≈ 47.4 µM) | 1.5 (≈ 2.84 µM) | 100 (≈ 190 µM) | MIC (Staph.aureus A 2001 [1]; [8]): 0.5 µg/mL (≈ 0.948 µM); MIC (Esch.coli U 20; [9]): > 100 µg/mL; MIC (Prot.mirab. A 1200; [8]): > 100 µg/mL; MIC (Salm.dubl. P 43; [8]): > 100 µg/mL; MIC (Prot.rettg. A 821; [8]): 3 µg/mL (≈ 5.69 µM); MIC (Dipl.pneum. L 54): 0.06 µg/mL (≈ 0.114 µM); MIC (Staph.aureus A 355 [7]): 0.5 µg/mL (≈ 0.948 µM)
CC(=O)OCC1=C(C(=O)O)N2C(=O)[C@@H](NC(=O)Cc3noc(C)n3)[C@H]2SC1 [Example 11D, 7-[(5-methyl-1,2,4-oxadiazol-3-yl)-acetamido]-cephalosporanic acid] | 6 (≈ 15.1 µM) | > 100 | 90 (≈ 227 µM) | 10 (≈ 25.2 µM) | 1.2 (≈ 3.03 µM) | > 100 | 3 (≈ 7.57 µM) | 12.5 (≈ 31.5 µM) | 6 (≈ 15.1 µM) | 0.5 (≈ 1.26 µM) | 1 (≈ 2.52 µM) | 0.5 (≈ 1.26 µM) | 6 (≈ 15.1 µM) | > 100 | 6 (≈ 15.1 µM) | > 100 | 0.6 (≈ 1.51 µM) | 1.5 (≈ 3.78 µM) | 100 (≈ 252 µM) | 6 (≈ 15.1 µM) | MIC (Staph.aureus A 2001 [1]; [8]): 3 µg/mL (≈ 7.57 µM); MIC (Esch.coli U 20; [10]): 12.5 µg/mL (≈ 31.5 µM); MIC (Prot.mirab. A 1200): 12.5 µg/mL (≈ 31.5 µM); MIC (Salm.dubl. P 43; 24 h): 12.5 µg/mL (≈ 31.5 µM); MIC (Prot.rettg. A 821; [8]): 40 µg/mL (≈ 101 µM); MIC (Dipl.pneum. L 54): 1.5 µg/mL (≈ 3.78 µM); MIC (Staph.aureus A 355 [7]): 6 µg/mL (≈ 15.1 µM)
CC1=C(C(=O)O)N2C(=O)[C@@H](NC(=O)Cc3nc(C)no3)[C@H]2SC1 [Example 11F, 7-[(3-methyl-1,2,4-oxadiazol-5-yl)-acetamido]-desacetoxycephalosporanic acid] | 100 (≈ 296 µM) | > 100 | 125 (≈ 369 µM) | 6 (≈ 17.7 µM) | 15 (≈ 44.3 µM) | > 100 | 50 (≈ 148 µM) | > 100 | 15 (≈ 44.3 µM) | 6 (≈ 17.7 µM) | 6 (≈ 17.7 µM) | 6 (≈ 17.7 µM) | 100 (≈ 296 µM) | > 100 | > 100 | > 100 | 8 (≈ 23.6 µM) | 12.5 (≈ 36.9 µM) | > 100 | > 100 | MIC (Staph.aureus A 2001 [1]): 12.5 µg/mL (≈ 36.9 µM); MIC (Esch.coli U 20; [9]): > 100 µg/mL; MIC (Prot.mirab. A 1200; [8]): > 100 µg/mL; MIC (Salm.dubl. P 43; [8]): 100 µg/mL (≈ 296 µM); MIC (Prot.rettg. A 821; [8]): > 100 µg/mL; MIC (Dipl.pneum. L 54): 50 µg/mL (≈ 148 µM); MIC (Staph.aureus A 355 [7]): 50 µg/mL (≈ 148 µM)
Cc1nc(CC(=O)N[C@@H]2C(=O)N3C(C(=O)O)=C(CN=[N+]=[N-])CS[C@H]23)no1 [Example 18, 7-[(5-methyl-1,2,4-oxadiazol-3-yl)-acetamido]-3-azidomethyl-3-cephem-4-carboxylic acid] | 6 (≈ 15.8 µM) | > 100 | 6 (≈ 15.8 µM) | 6 (≈ 15.8 µM) | 1.2 (≈ 3.16 µM) | > 100 | 1.5 (≈ 3.95 µM) | 12.5 (≈ 33 µM) | 1.2 (≈ 3.16 µM) | 0.25 (≈ 0.659 µM) | 1 (≈ 2.64 µM) | 1 (≈ 2.64 µM) | 10 (≈ 26.4 µM) | > 100 | 25 (≈ 65.9 µM) | > 100 | 0.9 (≈ 2.37 µM) | 3 (≈ 7.91 µM) | > 100 | 6 (≈ 15.8 µM) | MIC (Staph.aureus A 2001 [1]; [8]): 1 µg/mL (≈ 2.64 µM); MIC (Esch.coli U 20; [10]): 12.5 µg/mL (≈ 33 µM); MIC (Prot.mirab. A 1200; [8]): 25 µg/mL (≈ 65.9 µM); MIC (Salm.dubl. P 43; [8]): 6 µg/mL (≈ 15.8 µM); MIC (Prot.rettg. A 821): 12.5 µg/mL (≈ 33 µM); MIC (Dipl.pneum. L 54): 3 µg/mL (≈ 7.91 µM); MIC (Staph.aureus A 355 [7]): 1.5 µg/mL (≈ 3.95 µM)
